Target: T1, NQR complex (pHERD28C-NQR) (Pseudomonas aeruginosa, UniProt Q9HZK7+Q9HZK8)
T1 construct: gene nqrB; complete nqr operon on pHERD28C plasmid, C-terminal His tag on NqrF, expressed in P. aeruginosa, partially purified on Ni-NTA; with Na(+)-translocating NADH-quinone reductase subunit A; Na(+)-translocating NADH-quinone reductase subunit D; Na(+)-translocating NADH-quinone reductase subunit E; Na(+)-translocating NADH-quinone reductase subunit F
Assay: in-gel flavin fluorescence of the partially purified complex (SDS gel under UV)
Type: binding
Details: covalent (retained on SDS gel); bands of subunits NqrB and NqrC

T1 sequence (Q9HZK7 whole entry): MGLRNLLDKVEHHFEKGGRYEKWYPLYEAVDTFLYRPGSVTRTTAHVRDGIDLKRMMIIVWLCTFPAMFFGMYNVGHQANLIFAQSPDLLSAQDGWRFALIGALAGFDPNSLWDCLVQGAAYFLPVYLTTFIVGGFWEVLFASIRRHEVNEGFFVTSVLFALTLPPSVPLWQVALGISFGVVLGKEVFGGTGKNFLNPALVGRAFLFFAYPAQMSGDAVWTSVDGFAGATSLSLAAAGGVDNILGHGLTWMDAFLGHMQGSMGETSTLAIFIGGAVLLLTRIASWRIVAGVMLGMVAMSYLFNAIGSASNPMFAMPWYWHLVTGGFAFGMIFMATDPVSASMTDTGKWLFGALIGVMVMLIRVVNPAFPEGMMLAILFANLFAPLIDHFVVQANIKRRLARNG
T1 sequence (Q9HZK8 whole entry): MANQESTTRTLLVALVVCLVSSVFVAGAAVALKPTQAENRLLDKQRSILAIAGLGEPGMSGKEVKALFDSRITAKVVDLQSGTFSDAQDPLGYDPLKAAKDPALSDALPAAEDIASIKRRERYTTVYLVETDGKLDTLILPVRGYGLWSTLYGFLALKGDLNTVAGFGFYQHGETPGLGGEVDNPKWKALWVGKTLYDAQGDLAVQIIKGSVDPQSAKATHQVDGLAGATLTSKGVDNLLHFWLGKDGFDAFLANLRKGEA
T1 sequence (Q9HZL1 whole entry partner): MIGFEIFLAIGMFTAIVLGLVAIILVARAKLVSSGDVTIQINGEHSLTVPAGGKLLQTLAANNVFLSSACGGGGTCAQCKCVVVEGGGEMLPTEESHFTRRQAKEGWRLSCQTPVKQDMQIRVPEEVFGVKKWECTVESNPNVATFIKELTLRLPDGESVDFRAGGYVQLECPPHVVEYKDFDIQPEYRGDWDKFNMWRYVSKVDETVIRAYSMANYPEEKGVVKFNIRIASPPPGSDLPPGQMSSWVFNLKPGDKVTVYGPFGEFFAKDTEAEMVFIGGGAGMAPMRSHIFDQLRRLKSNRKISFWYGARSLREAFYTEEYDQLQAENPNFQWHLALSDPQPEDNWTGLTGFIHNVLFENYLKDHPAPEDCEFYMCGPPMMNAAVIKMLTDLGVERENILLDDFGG
T1 sequence (Q9HZK6 whole entry partner): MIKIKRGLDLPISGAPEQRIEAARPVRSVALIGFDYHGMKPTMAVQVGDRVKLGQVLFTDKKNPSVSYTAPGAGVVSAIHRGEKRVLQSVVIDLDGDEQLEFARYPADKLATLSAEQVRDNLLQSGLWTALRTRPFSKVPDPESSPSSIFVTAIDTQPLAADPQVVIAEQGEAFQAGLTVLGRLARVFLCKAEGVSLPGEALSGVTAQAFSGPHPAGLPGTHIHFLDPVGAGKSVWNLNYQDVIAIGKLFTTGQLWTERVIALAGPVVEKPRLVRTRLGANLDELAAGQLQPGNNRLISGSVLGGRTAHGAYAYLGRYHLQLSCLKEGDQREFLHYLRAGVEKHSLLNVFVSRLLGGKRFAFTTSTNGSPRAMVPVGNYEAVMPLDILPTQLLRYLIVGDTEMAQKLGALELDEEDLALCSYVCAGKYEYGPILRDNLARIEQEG
T1 sequence (Q9HZK9 whole entry partner): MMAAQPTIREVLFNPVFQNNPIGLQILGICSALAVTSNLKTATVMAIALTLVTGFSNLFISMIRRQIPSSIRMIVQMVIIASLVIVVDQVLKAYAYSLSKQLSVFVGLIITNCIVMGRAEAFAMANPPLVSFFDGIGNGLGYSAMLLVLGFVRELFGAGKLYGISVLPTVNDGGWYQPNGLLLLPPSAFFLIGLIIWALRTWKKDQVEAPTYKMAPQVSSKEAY
T1 sequence (Q9HZL0 whole entry partner): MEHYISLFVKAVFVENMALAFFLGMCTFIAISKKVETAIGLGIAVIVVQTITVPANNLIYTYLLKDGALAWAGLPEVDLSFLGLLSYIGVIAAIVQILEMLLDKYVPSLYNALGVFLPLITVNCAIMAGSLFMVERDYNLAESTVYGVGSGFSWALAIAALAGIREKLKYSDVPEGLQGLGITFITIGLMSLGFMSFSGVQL

Q: How did the “in-gel flavin fluorescence of the partially purified complex (SDS gel under UV)” value turn out when Cc1cc2nc3c(=O)[nH]c(=O)nc-3n(C[C@H](O)[C@H](O)[C@H](O)COP(=O)(O)O)c2cc1C [FMN] was run?
A: two fluorescent bands characteristic of the FMN cofactors of the NqrB and NqrC subunits

Source: PMC7857637, “The three NADH dehydrogenases of Pseudomonas aeruginosa: Their roles in energy metabolism and links to virulence” (PLoS ONE, 2021)
